Columns and labels:
[1] = system: HCV replication, genotype 1b (Huh-7 HCV replicon cell, sub-line 5-15); test: Replicon ELISA cell based assay, genotype 1b; conditions: Hepatitis C virus, Huh-7 HCV replicon cells, genotype 1b (sub-line 5-15), 72 hours, mean, assayed at least twice
Experimental: (§1) Replicon ELISA Cell Based Assay
(§2) 100 μL of medium containing 10% FCS were added to each well of clear, flat-bottomed 96 well microplates, excepting wells in the top row. Test compound was diluted in assay medium to twice the final required starting concentration from a 40 mM stock solution in DMSO. 200 μL of the starting dilution were introduced into two wells each in the top row and doubling dilutions made down the plate by the sequential transfer of 100 μL aliquots with thorough mixing in the wells; the final 100 μL were discarded. The two bottom rows were not used for compound dilutions. Huh-7 HCV replicon cell monolayers nearing confluency were stripped from growth flasks with versene-trypsin solution and the cells were resuspended in assay medium at either 2×10^5 cells/mL (sub-line 5-15; genotype 1b; Lohmann, V., Korner, F., Koch, J-O., Herian, U., Thielmann, L. and Bartenschlager, R., Science, 1999, 285, 110-113) or at 3×10^5 cells/mL (genotype 1a; Gu, B., Gates, A. T., Isken, O., Behrens, S. E. and Sarisky, R. T., J. Virol., 2003, 77, 5352-5359). 100 μL of cell suspension were added to all wells and the plates incubated at 37° C. for 72 hours in a 5% CO2 atmosphere.
(§3) Following incubation, the assay medium was aspirated from the plates. The cell sheets were washed by gentle immersion in phosphate buffered saline (PBS), which was then aspirated off, and fixed with acetone:methanol (1:1) for 5 minutes. Following a further wash with PBS, 100 μL of ELISA diluent (PBS+0.05% v/v Tween 20+2% w/v skimmed milk powder) were added to all wells and the plates incubated at 37° C. for 30 minutes on an orbital platform. The diluent was removed and each well then received 50 μL of a 1/200 dilution of anti-HCV specific, murine, monoclonal antibody (either Virostat #1872 or #1877), except for wells in one of the compound-free control rows which received diluent alone to act as negative controls. The plates were incubated at 37° C. for 2 hours and washed 3 times with PBS/0.05% Tween 20, then 50 μL of horseradish peroxidase conjugated, anti-mouse, rabbit polyclonal serum (Dako #P0260), diluted 1/1000, were added to all wells. The plates were incubated for a further hour, the antibody removed and the cell sheets washed 5 times with PBS/Tween and blotted dry. The assay was developed by the addition of 50 μL of ortho-phenylenediamine/peroxidase substrate in urea/citrate buffer (SigmaFast, Sigma #P-9187) to each well, and colour allowed to develop for up to 15 minutes. The reaction was stopped by the addition of 25 μL per well of 2 M sulphuric acid and the plates were read at 490 nm on a Fluostar Optima spectrophotometer.
(§4) The substrate solution was removed and the plates were washed in tap water, blotted dry and the cells stained with 5% carbol fuchsin in water for 30 minutes. The stain was discarded and the cell sheets washed, dried and examined microscopically to assess cytotoxicity.
(§5) The absorbance values from all compound-free wells that had received both primary and secondary antibodies were averaged to obtain a positive control value. The mean absorbance value from the compound-free wells that had not received the primary antibody was used to provide the negative (background) control value. The readings from the duplicate wells at each compound concentration were averaged and, after the subtraction of the mean background from all values, were expressed as a percentage of the positive control signal. The quantifiable and specific reduction of expressed protein detected by the ELISA in the presence of a drug can be used as a measure of replicon inhibition. GraFit software (Erithacus Software Ltd.) was used to plot the curve of percentage inhibition against compound concentration and derive the 50% inhibitory concentration (IC50) for the compound.

[2] = system: HCV replication, genotype 1a (Huh-7 HCV replicon cell); test: Replicon ELISA cell based assay, genotype 1a; conditions: Hepatitis C virus, Huh-7 HCV replicon cells, 72 hours, mean, assayed at least twice
Experimental: as §1, §2, §3, §4, §5

Structure (SMILES)	IC50 [1] [nM]	IC50 [2] [nM]
CC(C)N(c1cc(-c2ccccc2)sc1C(=O)O)C(=O)[C@H]1CC[C@H](C)CC1 [Compound A, 5-Phenyl-3-[[(trans-4-methylcyclohexyl)carbonyl](1-methylethyl)amino]-2-thiophenecarboxylic acid, reference compound]	100 to 500	1000 to 5000
CC(C)N(c1cc(-c2ccc(Cl)cc2)sc1C(=O)O)C(=O)[C@H]1CC[C@H](C)CC1 [Compound B, 5-(4-Chlorophenyl)-3-[[(trans-4-methylcyclohexyl)carbonyl](1-methylethyl)amino]-2-thiophenecarboxylic acid, reference compound]	1000 to 5000	1000 to 5000
CC(C)N(c1cc(-c2ccc(-c3ccc(Cl)cc3)cc2)sc1C(=O)O)C(=O)[C@H]1CC[C@H](C)CC1 [Compound C, 5-(4′-Chloro-4-biphenylyl)-3-[[(trans-4-methylcyclohexyl)carbonyl](1-methylethyl)amino]-2-thiophenecarboxylic acid, reference compound]	> 5000	1000 to 5000
CC(C)N(c1cc(-c2ccc(C#N)cc2)sc1C(=O)O)C(=O)[C@H]1CC[C@H](C)CC1 [Compound D, 5-(4-Cyanophenyl)-3-[[(trans-4-methylcyclohexyl)carbonyl](1-methylethyl)amino]-2-thiophenecarboxylic acid, reference compound]	1000 to 5000	1000 to 5000
CC(=O)c1ccc(-c2cc(N(C(=O)[C@H]3CC[C@H](C)CC3)C(C)C)c(C(=O)O)s2)cc1 [Compound E, 5-(4-Acetylphenyl)-3-[[(trans-4-methylcyclohexyl)carbonyl](1-methylethyl)amino]-2-thiophenecarboxylic acid, reference compound]	1000 to 5000	1000 to 5000
CC(C)N(C(=O)c1ccc(Cl)cc1Cl)c1cc(-c2ccc(-c3nnn[nH]3)cc2)sc1C(=O)O [Compound F, 3-[[(2,4-Dichlorophenyl)carbonyl](1-methylethyl)amino]-5-[4-(1H-tetrazol-5-yl)phenyl]-2-thiophenecarboxylic acid, reference compound]	> 5000	1000 to 5000
CC(C)N(c1cc(-c2ccc(-c3cc4ncccc4o3)cc2)sc1C(=O)O)C(=O)[C@H]1CC[C@H](C)CC1 [Example 1, 5-(4-Furo[3,2-b]pyridin-2-ylphenyl)-3-[[(trans-4-methylcyclohexyl)carbonyl](1-methylethyl)amino]-2-thiophenecarboxylic acid]	10 to 50	10 to 50
CC(C)N(c1cc(-c2ccc(-c3cc4ncccn4n3)cc2)sc1C(=O)O)C(=O)[C@H]1CC[C@H](C)CC1 [Example 2, 3-[[(trans-4-Methylcyclohexyl)carbonyl](1-methylethyl)amino]-5-(4-pyrazolo[1,5-a]pyrimidin-2-ylphenyl)-2-thiophenecarboxylic acid]	10 to 50	10 to 50
CC(C)N(c1cc(-c2ccc(-c3cn4ccccc4n3)cc2)sc1C(=O)O)C(=O)[C@H]1CC[C@H](C)CC1 [Example 3, 5-(4-Imidazo[1,2-a]pyridin-2-ylphenyl)-3-[[(trans-4-methylcyclohexyl)carbonyl](1-methylethyl)amino]-2-thiophenecarboxylic acid]	10 to 50	50 to 100
CC(C)N(c1cc(-c2ccc(-c3cn4ccsc4n3)cc2)sc1C(=O)O)C(=O)[C@H]1CC[C@H](C)CC1 [Example 4, 5-(4-Imidazo[2,1-b][1,3]thiazol-6-ylphenyl)-3-[[(trans-4-methylcyclohexyl)carbonyl](1-methylethyl)amino]-2-thiophenecarboxylic acid]	10 to 50	50 to 100
Cc1cc(N)n2nc(-c3ccc(-c4cc(N(C(=O)[C@H]5CC[C@H](C)CC5)C(C)C)c(C(=O)O)s4)cc3)cc2n1 [Example 5, 5-[4-(7-Amino-5-methylpyrazolo[1,5-a]pyrimidin-2-yl)phenyl]-3-[[(trans-4-methylcyclohexyl)carbonyl](1-methylethyl)amino]-2-thiophenecarboxylic acid]	< 5	< 5
Cc1ccn2nc(-c3ccc(-c4cc(N(C(=O)[C@H]5CC[C@H](C)CC5)C(C)C)c(C(=O)O)s4)cc3)cc2n1 [Example 6, 3-[[(trans-4-Methylcyclohexyl)carbonyl](1-methylethyl)amino]-5[4-(5-methylpyrazolo[1,5-a]pyrimidin-2-yl)phenyl]-2-thiophenecarboxylic acid]	10 to 50	50 to 100
CC(C)N(c1cc(-c2ccc(-c3cc4nccc(N)n4n3)cc2)sc1C(=O)O)C(=O)[C@H]1CC[C@H](C)CC1 [Example 7, 5-[4-(7-Aminopyrazolo[1,5-a]pyrimidin-2-yl)phenyl]-3-[[(trans-4-methylcyclohexyl)carbonyl](1-methylethyl)amino]-2-thiophenecarboxylic acid]	< 5	< 5
CC(C)N(c1cc(-c2ccc(-c3nc4ncccc4o3)cc2)sc1C(=O)O)C(=O)[C@H]1CC[C@H](C)CC1 [Example 8, 3-[[(4-Methylcyclohexyl)carbonyl](1-methylethyl)amino]-5-(4-[1,3]oxazolo[4,5-b]pyridin-2-ylphenyl)-2-thiophenecarboxylic acid]	10 to 50	10 to 50
CC(C)N(c1cc(-c2ccc(-c3cnc4occc4c3)cc2)sc1C(=O)O)C(=O)[C@H]1CC[C@H](C)CC1 [Example 9, 5-(4-Furo[2,3-b]pyridin-5-ylphenyl)-3-[[(trans-4-methylcyclohexyl)carbonyl](1-methylethyl)amino]-2-thiophenecarboxylic acid]	50 to 100	100 to 500
CC(C)N(c1cc(-c2ccc(-c3nc4cc(N)ccc4o3)cc2)sc1C(=O)O)C(=O)[C@H]1CC[C@H](C)CC1 [Example 10, 5-[4-(5-Amino-1,3-benzoxazol-2-yl)phenyl]-3-[[(trans-4-methylcyclohexyl)carbonyl](1-methylethyl)amino]-2-thiophenecarboxylic acid]	100 to 500	50 to 100
CC(C)N(c1cc(-c2ccc(-c3nc4cccnc4o3)cc2)sc1C(=O)O)C(=O)[C@H]1CC[C@H](C)CC1 [Example 11, 3-[[(4-Methylcyclohexyl)carbonyl](1-methylethyl)amino]-5-(4-[1,3]oxazolo[5,4-b]pyridin-2-ylphenyl)-2-thiophenecarboxylic acid]	100 to 500	100 to 500
CC(C)N(c1cc(-c2ccc(-c3cc4cnccc4o3)cc2)sc1C(=O)O)C(=O)[C@H]1CC[C@H](C)CC1 [Example 12, 5-(4-Furo[3,2-c]pyridin-2-ylphenyl)-3-[[(trans-4-methylcyclohexyl)carbonyl](1-methylethyl)amino]-2-thiophenecarboxylic acid]	50 to 100	100 to 500
CC(C)N(c1cc(-c2ccc(-c3cc4cnccc4o3)cc2)sc1C(=O)O)C(=O)[C@H]1CC[C@H](C)CC1 [Example 13, Sodium 5-(4-furo[3,2-c]pyridin-2-ylphenyl)-3-[[(trans-4-methylcyclohexyl)carbonyl](1-methylethyl)amino]-2-thiophenecarboxylate]	100 to 500	100 to 500
CC(C)N(c1cc(-c2ccc(-c3cn4ccccc4n3)cc2)sc1C(=O)O)C(=O)[C@H]1CC[C@H](C(F)(F)F)CC1 [Example 14, 5-(4-Imidazo[1,2-a]pyridin-2-ylphenyl)-3-((1-methylethyl){[trans-4-(trifluoromethyl)cyclohexyl]carbonyl}amino)-2-thiophenecarboxylic acid]	500 to 1000	100 to 500

Source: US20090136448A1, “Antiviral 2-Carboxy-Thiophene Compounds” (priority 2005, published 2009)
